pKi: −log10 of the molar value.
Legend:
[1] = target: T1, PTH receptors (bovine renal cortical plasma membranes) (Bos taurus, UniProt Q1LZF7); assay: Bovine renal membrane binding assay; conditions: radioligand [Nle^8, 8, (^125 I)-Tyr^34 ]bPTH (1-34)NH2, 30 min, 21° C
T1 construct: from tissue; host or cells: bovine renal cortex plasma membranes
T1 sequence (Q1LZF7 29-589): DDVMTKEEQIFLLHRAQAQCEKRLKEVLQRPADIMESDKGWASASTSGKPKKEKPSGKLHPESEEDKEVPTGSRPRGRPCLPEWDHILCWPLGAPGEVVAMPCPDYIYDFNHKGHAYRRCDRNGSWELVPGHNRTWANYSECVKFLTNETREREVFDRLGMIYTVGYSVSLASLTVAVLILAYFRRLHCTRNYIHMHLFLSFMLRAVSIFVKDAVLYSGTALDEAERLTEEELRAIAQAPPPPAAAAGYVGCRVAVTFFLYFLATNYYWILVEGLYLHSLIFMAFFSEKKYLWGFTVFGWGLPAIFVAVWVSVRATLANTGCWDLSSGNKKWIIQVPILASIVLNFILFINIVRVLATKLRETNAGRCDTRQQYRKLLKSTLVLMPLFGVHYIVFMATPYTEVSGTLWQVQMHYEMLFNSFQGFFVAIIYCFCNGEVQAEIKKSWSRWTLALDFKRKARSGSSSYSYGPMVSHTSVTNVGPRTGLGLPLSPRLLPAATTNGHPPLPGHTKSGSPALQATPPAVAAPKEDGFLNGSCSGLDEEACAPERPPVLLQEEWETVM
Procedure: HCF analogues were analysed in a new receptor assay reported in Goldman et al., Endocrin 123: 1468-1475 (1988). The binding assay used [Nle^8, 8, (^125 I)-Tyr^34 ]bPTH (1-34)NH2 which was purified by HPLC (Novapak C18, 32-35% CH3 CN in 0.1% TFA) and was stored as aliquots in 25 mM TrisHCl/1%BSA at -70° C. Bovine renal cortical plasma membranes were incubated with radioligand (25,000 cpm) in a Tris-containing buffer (250 μl) for 30 min at room temperature 21° C. Once equilibrium was reached, bound and free radioligand were separated by centrifugation. High specific binding (85%) to bovine renal cortical membranes was obtained consistently.

[2] = test system: adenylate cyclase, human osteosarcoma cell line, B10; assay: Human bone cell (B 10) adenylate cyclase assay; assay type: cell-based; conditions: inhibition of cAMP stimulation by lnM [Nle^8,18, Tyr^34 ] bPTH(1-34) NH2; B10 cells
Procedure: HCF analogues were analyzed in a human osteosarcoma cell line, B10, for the ability to inhibit cAMP stimulation by lnM [Nle^8,18, Tyr^34 ] bPTH(1-34) NH2 by the method described by R. J. Majeska et al, Endocrinol. 107, 1494 (1980).
Adenylate cyclase assay: Confluent cultures were rinsed in CMFH and scraped into 0.5-1.0 ml buffer (10 mM Tris-HCl, pH 7.8; 1 mM dithiothreitol, 0.2 mM MgCl2; and 0.5 mM EGTA) and homogenized with 10 strokes of a Dounce homogenizer (pestle A). Adenylate cyclase activity was measured by the method of Salomon et al., (18) on samples of either homogenate or membrane pellets obtained by centrifugation of diluted homogenates at 47,000×g for 30 min. The enzyme assay mix contained 0.1-0.3 mM [α-^32 P]ATP, MgCl2, and guanine nucelotides, as specified in the tables and FIGURES, and 1 mM cAMP, 5 mM phosphocreatine, and 100 U/ml creatine phosphokinase. Purified bovine PTH-(1-84), generously provided by Drs. H. Keutmann and M. Rosenblatt, Massachusetts General Hospital, Boston, MA, was dissolved and diluted in 1.5 ml/liter acetic acid containing 1 g/liter bovine serum albumin (Pentex fraction V, Miles Laboratories, Elkhart, IN). L-Isoproterenol bitarate (Sigma Chemical Co., St. Louis, MO) was prepared immediately before use and dissolved and diluted in assay buffer. Control tubes were assayed in the presence of diluent alone.

[3] = target: T2, PTH receptors (human bone cells) (Homo sapiens, UniProt Q03431); assay: Human bone cell binding assay; conditions: confluent monolayers, radioligand [Nle^8,18,(^125 I)-Tyr^34 ]bPTH(1-34)NH2, room temperature, 4 hours
T2 construct: endogenous in cells
T2 sequence (Q03431 27-593): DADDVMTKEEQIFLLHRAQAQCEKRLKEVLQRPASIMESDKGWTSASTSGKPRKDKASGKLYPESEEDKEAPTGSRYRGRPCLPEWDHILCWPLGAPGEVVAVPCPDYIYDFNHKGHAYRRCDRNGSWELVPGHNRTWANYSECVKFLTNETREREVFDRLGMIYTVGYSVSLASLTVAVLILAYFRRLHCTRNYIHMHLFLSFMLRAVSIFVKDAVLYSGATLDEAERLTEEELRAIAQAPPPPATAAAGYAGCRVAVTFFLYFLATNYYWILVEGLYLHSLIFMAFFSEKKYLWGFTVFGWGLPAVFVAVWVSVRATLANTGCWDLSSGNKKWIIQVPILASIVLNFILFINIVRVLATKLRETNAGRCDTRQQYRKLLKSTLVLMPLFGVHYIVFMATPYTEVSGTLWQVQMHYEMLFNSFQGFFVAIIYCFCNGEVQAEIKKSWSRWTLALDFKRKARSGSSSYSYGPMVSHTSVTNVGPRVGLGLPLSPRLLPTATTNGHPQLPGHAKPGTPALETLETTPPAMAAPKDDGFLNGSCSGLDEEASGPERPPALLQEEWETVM
Procedure: HCF analogues were analyzed in a new receptor binding assay as follows. Cells were plated in 24-well dishes in RPMl 1640 medium supplemented with 1% BSA, 20 mM HEPES, pH 7.5, and 0.1% azide. [Nle^8,18,(^125 I)-Tyr^34 ]bPTH(1-34)NH2 (50,000 cpm/well) was added to confluent monolayers in the absence or presence of varying concentrations of analogue under investigation in a final volume of 0.25 ml. Cultures were incubated at room temperature for 4 hours. Reactions were terminated by placing the cultures on ice and washing 4 times with ice cold PBS. Radioactivity associated with the cells was recovered by solubilizing the cells with 1 ml of 1N NaOH.

Kb [1]: 22.6 nM
pKi [3]: 7.43
SMILES: CC[C@H](C)[C@H](NC(=O)[C@H](CC(C)C)NC(=O)[C@H](Cc1c[nH]cn1)NC(=O)[C@H](Cc1c[nH]cn1)NC(=O)[C@H](CC(C)C)NC(=O)[C@H](Cc1ccccc1)NC(=O)[C@H](Cc1ccccc1)NC(=O)[C@H](CCCNC(=N)N)NC(=O)[C@H](CCCNC(=N)N)NC(=O)[C@H](CCCNC(=N)N)NC(=O)[C@H](CC(C)C)NC(=O)[C@H](CC(=O)O)NC(=O)[C@H](CCC(N)=O)NC(=O)[C@@H](NC(=O)[C@H](CO)NC(=O)[C@H](CCCCNC(=O)CCNC(=O)CCCC[C@@H]1SC[C@@H]2NC(=O)N[C@@H]21)NC(=O)[C@@H](Cc1c[nH]c2ccccc12)NC(=O)[C@H](CC(C)C)NC(=O)[C@H](CC(=O)O)NC(=O)[C@H](Cc1c[nH]cn1)NC(=O)[C@H](CC(C)C)NC(=O)[C@@H](N)CC(C)C)[C@@H](C)CC)C(=O)N[C@@H](C)C(=O)N[C@@H](CCC(=O)O)C(=O)N[C@H](C(=O)N[C@@H](Cc1c[nH]cn1)C(=O)N[C@H](C(=O)N[C@@H](C)C(N)=O)[C@@H](C)O)[C@@H](C)CC [[Leu^11,D-Trp^12,Lys^13 (ε-(N-biotinyl β-Ala))]hHCF(7-34)NH2]
pKi [2]: 8.12
